Reference: the NIST ThermoML archive (doi:10.1016/j.tca.2011.11.009)
± gives the expanded uncertainty stated by the source.

Conditions: Liquid, Vibrating tube method

CCCCn1cc[n+](C)c1.N#C[S-] [1-butyl-3-methylimidazolium thiocyanate]
mass density [kg/m3]
Conditions	298.15 K	308.15 K	318.15 K	328.15 K	338.15 K
100 kPa	1070.18 ± 0.48	1063.9 ± 0.47	1058.33 ± 0.47	1052.54 ± 0.47	1046.94 ± 0.47
200 kPa	1070.23 ± 0.48	1063.94 ± 0.47	1058.37 ± 0.47	1052.59 ± 0.47	1047.03 ± 0.47
300 kPa	1070.25 ± 0.48	1064.03 ± 0.47	1058.41 ± 0.47	1052.62 ± 0.47	1047.05 ± 0.47
400 kPa	1070.29 ± 0.48	1064.09 ± 0.48	1058.45 ± 0.47	1052.69 ± 0.47	1047.1 ± 0.47
500 kPa	1070.32 ± 0.48	1064.13 ± 0.48	1058.5 ± 0.47	1052.69 ± 0.47	1047.14 ± 0.47
600 kPa	1070.36 ± 0.48	1064.18 ± 0.48	1058.54 ± 0.47	1052.75 ± 0.47	1047.17 ± 0.47
800 kPa	1070.43 ± 0.48	1064.29 ± 0.48	1058.61 ± 0.47	1052.82 ± 0.47	1047.27 ± 0.47
1000 kPa	1070.5 ± 0.48	1064.35 ± 0.48	1058.68 ± 0.47	1052.94 ± 0.47	1047.33 ± 0.47
2000 kPa	1070.88 ± 0.48	1064.73 ± 0.48	1059.07 ± 0.47	1053.31 ± 0.47	1047.74 ± 0.47
4000 kPa	1071.63 ± 0.48	1065.48 ± 0.48	1059.88 ± 0.48	1054.11 ± 0.47	1048.56 ± 0.47
6000 kPa	1072.37 ± 0.49	1066.26 ± 0.48	1060.63 ± 0.48	1054.91 ± 0.48	1049.39 ± 0.47
8000 kPa	1073.11 ± 0.49	1067.02 ± 0.49	1061.43 ± 0.48	1055.68 ± 0.48	1050.19 ± 0.48
10000 kPa	1073.83 ± 0.49	1067.77 ± 0.49	1062.18 ± 0.49	1056.48 ± 0.48	1050.99 ± 0.48

CCCC[n+]1ccc(C)cc1.N#C[S-] [1-butyl-4-methylpyridinium thiocyanate]
mass density [kg/m3]
Conditions	298.15 K	308.15 K	318.15 K	328.15 K	338.15 K
100 kPa	1061.57 ± 0.97	1055.36 ± 0.96	1049.83 ± 0.95	1044.2 ± 0.94	1037.12 ± 0.92
200 kPa	1061.61 ± 0.97	1055.39 ± 0.96	1049.88 ± 0.95	1044.23 ± 0.94	1037.15 ± 0.92
300 kPa	1061.64 ± 0.97	1055.43 ± 0.96	1049.93 ± 0.95	1044.29 ± 0.94	1037.18 ± 0.92
400 kPa	1061.66 ± 0.97	1055.48 ± 0.96	1049.96 ± 0.95	1044.33 ± 0.94	1037.18 ± 0.93
500 kPa	1061.7 ± 0.97	1055.53 ± 0.96	1050.03 ± 0.95	1044.34 ± 0.94	1037.24 ± 0.93
600 kPa	1061.74 ± 0.97	1055.59 ± 0.96	1050.06 ± 0.95	1044.41 ± 0.94	1037.29 ± 0.93
800 kPa	1061.81 ± 0.97	1055.69 ± 0.96	1050.13 ± 0.95	1044.45 ± 0.94	1037.35 ± 0.93
1000 kPa	1061.88 ± 0.97	1055.77 ± 0.96	1050.2 ± 0.95	1044.55 ± 0.94	1037.43 ± 0.93
2000 kPa	1062.24 ± 0.97	1056.11 ± 0.96	1050.6 ± 0.95	1044.93 ± 0.94	1037.83 ± 0.93
4000 kPa	1062.95 ± 0.98	1056.86 ± 0.97	1051.37 ± 0.96	1045.71 ± 0.95	1038.61 ± 0.93
6000 kPa	1063.68 ± 0.98	1057.62 ± 0.97	1052.12 ± 0.96	1046.49 ± 0.95	1039.4 ± 0.94
8000 kPa	1064.4 ± 0.99	1058.35 ± 0.98	1052.88 ± 0.97	1047.26 ± 0.95	1040.18 ± 0.94
10000 kPa	1065.1 ± 1	1059.08 ± 0.98	1053.61 ± 0.97	1048.01 ± 0.96	1040.98 ± 0.94

CCn1cc[n+](C)c1.N#C[S-] [1-ethyl-3-methylimidazolium thiocyanate]
mass density [kg/m3]
Conditions	298.15 K	308.15 K	318.15 K	328.15 K	338.15 K
100 kPa	1116.69 ± 1.1	1110.39 ± 1.1	1104.8 ± 1.1	1098.18 ± 1	1092.87 ± 1
200 kPa	1116.71 ± 1.1	1110.42 ± 1.1	1104.83 ± 1.1	1098.22 ± 1	1092.93 ± 1
300 kPa	1116.72 ± 1.1	1110.47 ± 1.1	1104.87 ± 1.1	1098.27 ± 1	1092.97 ± 1
400 kPa	1116.77 ± 1.1	1110.5 ± 1.1	1104.91 ± 1.1	1098.31 ± 1	1093 ± 1
500 kPa	1116.82 ± 1.1	1110.54 ± 1.1	1104.97 ± 1.1	1098.32 ± 1	1093.05 ± 1
600 kPa	1116.86 ± 1.1	1110.59 ± 1.1	1105 ± 1.1	1098.38 ± 1	1093.11 ± 1
800 kPa	1116.92 ± 1.1	1110.68 ± 1.1	1105.04 ± 1.1	1098.43 ± 1.1	1093.18 ± 1
1000 kPa	1117 ± 1.1	1110.74 ± 1.1	1105.13 ± 1.1	1098.54 ± 1.1	1093.24 ± 1
2000 kPa	1117.35 ± 1.1	1111.1 ± 1.1	1105.5 ± 1.1	1098.87 ± 1.1	1093.64 ± 1
4000 kPa	1118.04 ± 1.1	1111.81 ± 1.1	1106.24 ± 1.1	1099.64 ± 1.1	1094.38 ± 1.1
6000 kPa	1118.74 ± 1.1	1112.53 ± 1.1	1106.96 ± 1.1	1100.38 ± 1.1	1095.15 ± 1.1
8000 kPa	1119.43 ± 1.1	1113.24 ± 1.1	1107.68 ± 1.1	1101.1 ± 1.1	1095.91 ± 1.1
10000 kPa	1120.11 ± 1.1	1113.94 ± 1.1	1108.39 ± 1.1	1101.83 ± 1.1	1096.65 ± 1.1
